Drawing on patent US6653317B2, “Pyrimidine 3-oxide compounds for inducing/stimulating hair growth and/or retarding hair loss” (Societe l'Oreal S.A., priority 1998, dated 2003), this text covers Activation for four compounds.

This assay concerns the target T1, prostaglandin endo-peroxidesynthase (PGHS-1) (Ovis aries, UniProt P05979).
T1 construct: isolated from sheep seminal glands; purchased Cayman Chemical 60100; host or cells: sheep seminal glands (tissue-derived)
T1 sequence (P05979 25-600): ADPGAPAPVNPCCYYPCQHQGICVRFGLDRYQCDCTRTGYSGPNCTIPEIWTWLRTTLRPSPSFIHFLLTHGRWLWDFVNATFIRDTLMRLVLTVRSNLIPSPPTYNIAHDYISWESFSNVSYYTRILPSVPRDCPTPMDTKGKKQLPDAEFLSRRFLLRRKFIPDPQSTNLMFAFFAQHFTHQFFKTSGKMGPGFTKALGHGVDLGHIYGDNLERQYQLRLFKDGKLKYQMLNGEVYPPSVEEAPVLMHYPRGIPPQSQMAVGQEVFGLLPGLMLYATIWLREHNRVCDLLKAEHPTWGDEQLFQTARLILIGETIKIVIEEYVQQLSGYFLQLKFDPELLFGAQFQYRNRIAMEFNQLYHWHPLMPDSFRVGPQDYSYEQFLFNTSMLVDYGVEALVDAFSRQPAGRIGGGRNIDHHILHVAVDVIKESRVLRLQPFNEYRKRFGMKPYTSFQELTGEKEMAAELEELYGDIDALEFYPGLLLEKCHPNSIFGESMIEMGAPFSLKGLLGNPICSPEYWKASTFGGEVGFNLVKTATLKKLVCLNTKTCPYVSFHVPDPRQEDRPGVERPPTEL
In words: Measurement of the prostaglandin-endoperoxide synthase (PGHS-1) activating power (oxygen consumption, Clark electrode). It counts as biochemical, sheep. As to conditions: test compound 0.5 mM; oxidation of arachidonic acid, 37° C., pH 8.00; % relative to the values obtained with the control.
Protocol: The amount of oxygen required for the oxidation of arachidonic acid was measured by means of the cyclooxygenase activity of the prostaglandin-endo-peroxide synthase, in the presence or absence of the test compound.
The oxygen consumption measurements were taken using a Clark electrode connected to a YSI 5300 oxymeter marketed by Yellow Spring Instruments.
These measurements were taken in an open chamber with constant stirring at a temperature of 37° C.
If a graph recorder was used, the oxygen consumption measurement is expressed in the form of a curve, the maximum slope of which makes it possible to determine the initial rate of the reaction, and from which it is possible to calculate the period for which the initial reaction rate is maintained.
The curve thus obtained, in the absence of any substance other than the ingredients required for the enzymatic reaction, provides the basal activity of the enzyme. The initial rate and the period for which this rate is maintained can be determined under these conditions in a reaction comprising only the enzyme and its substrate.
The activity of the test compounds was measured under the same conditions, by adding the test compound to the reaction medium. The activity of the test compound with respect to cyclooxygenase was evaluated by means of the variation of the slope and the variation of the period for which the maximum rate was maintained.
A solution of 0.1 M Tris and 5 mM EDTA at pH=8.00 (TE solution) was prepared.
The substrate was formulated in the form of a stock solution of potassium arachidonate according to the supplier's procedure (Interchim, France).
The test compounds were prepared in the form of a stock solution with a titre of 5 mM, in a water/alcohol mixture (80/20) and were tested with the same batch of enzyme.
At t=0, 380 μl of TEA buffer preheated to 37° C. were introduced into the measuring chamber and maintained to equilibrate for at least one minute.
At t=1, 300 units of enzyme (PGHS) were introduced.
Recording was initiated, and the mixture was again permitted to stabilize for one minute. The recording obtained provided the reaction baseline.
After a further minute, 10 μl of substrate were introduced and the oxygen consumption was recorded for 2 to 3 minutes.
The initial reaction rate and the period for which this rate was maintained were thus determined.
The experimental conditions were identical to those above, except that the TEA buffer preheated to 37° C. was replaced by an identical buffer containing the test compound at a concentration of 0.5 mM.
The following results are expressed as a % relative to the values obtained with the control.
Take `CCCCCCNc1ccnc(N)[n+]1[O-]` [Example 1, 2-Amino-4-hexylaminopyrimidine 3-Oxide]: the Activation entry is “+37%”. On to `CCCCCCCCCCCCNc1ccnc(N)[n+]1[O-]` [Example 2, 2-Amino-4-dodecylaminopyrimidine 3-Oxide], for which the Activation result was “+11%”. As for `CCCCCCCCNc1ccnc(N)[n+]1[O-]` [Example 3, 2-Amino-4-octylaminopyrimidine 3-Oxide], the Activation result is recorded as “+14%”.

On to `CCCCCCCCNc1cc(OCCCC)nc(N)[n+]1[O-]` [Example 17, 2-Amino-4-octylamino-6-butyloxypyrimidine 3-Oxide], for which the Activation result was “+8%”.
